Patent publication US9187480B2, “Peripherally restricted diphenyl purine derivatives” (RESEARCH TRIANGLE INSTITUTE, priority 2012, dated 2015)

What was measured:
CB1 [1] = target: T1, CB1 (Homo sapiens (Human), UniProt P21554); assay: CB1 activated Gαq16-coupled intracellular calcium mobilization assay in CHO-K1 cells; assay type: cell-based; conditions: apparent affinity (Ke)
CB1 [2] = target: T1, CB1; assay: Displacement of [3H]CP55940 in membranes of CHO-K1 cells over-expressing CB1;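 as to all read-outs here: reported values are averages of 3-6 independent measurements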; conditions: for Binding Selectivity using CP55940 Displacement: CB1 versus CB2; for Ki: read-out: Ki (nM) v. [3H]CP55940 at CB1, radioligand [3H]CP55940, CHO-K1 membranes
Experimental: Further characterization of select compounds was performed using radioligand displacement of [3H]1 and equilibrium dissociation constant (Ki) values were determined. Selectivity of these compounds at CB1 versus CB2 was also determined by obtaining Ki values at either receptor using displacement of [3H]CP55940 in membranes of CHO-K1 cells over-expressing either receptor. Data reported are average values from 3-6 measurements.
Selectivity against the CB2 receptor was determined by comparing the compound displacement of radiolabeled CP55940, which is a cannabinoid known to act as a full agonist at both CB1 and CB2 receptors.

CB2 = CB2 (Homo sapiens (Human), UniProt P34972); assay: Displacement of [3H]CP55940 in membranes of CHO-K1 cells over-expressing CB2; assay type: binding; conditions: radioligand [3H]CP55940, CHO-K1 membranes; read-out: Ki (nM) v. [3H]CP55940 at CB2
Sequence of CB2 (P34972 whole entry): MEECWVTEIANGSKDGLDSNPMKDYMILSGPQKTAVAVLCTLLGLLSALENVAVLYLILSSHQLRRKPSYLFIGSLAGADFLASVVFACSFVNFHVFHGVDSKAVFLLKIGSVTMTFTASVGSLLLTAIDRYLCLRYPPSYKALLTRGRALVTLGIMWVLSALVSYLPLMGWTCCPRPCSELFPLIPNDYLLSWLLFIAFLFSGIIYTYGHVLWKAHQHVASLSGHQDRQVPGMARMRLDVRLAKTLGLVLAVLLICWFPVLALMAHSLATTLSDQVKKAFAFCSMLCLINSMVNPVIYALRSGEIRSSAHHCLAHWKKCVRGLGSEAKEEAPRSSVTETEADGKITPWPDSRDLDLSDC

MDCK-MDR = MDCK-MDR transport (apical to basal); assay type: in vitro ADME
[3] = Brain penetration / plasma and brain levels after oral dosing in SD rats; assay type: in vivo, Sprague-Dawley (SD) rats; conditions: oral 10 mg/kg; for Kp at 1 h / Kp at 2 h / Kp at 4 h / Kp at 24 h / Kp: Sprague-Dawley, rat, brain and plasma; for Kp: range over sampling times, read-out: brain to plasma ratios; for Brain conc.: unperfused brain
Experimental: However, unlike otenabant, this sulfonamide is a peripherally selective compound. […] Select compounds were chosen for study to determine penetration into the CNS. Selected compounds were dosed orally at 10 mg/kg in SD rats. Brain and plasma samples were collected at 1, 2, 4, and 24 hours post dose and samples were analyzed by MS (Table 2, below). Since unperfused brains were used and the blood volume in unperfused brains is approximately 4%, a brain to plasma level of ≦0.04 represents no discernible penetration into the CNS.

T1 sequence (P21554 whole entry): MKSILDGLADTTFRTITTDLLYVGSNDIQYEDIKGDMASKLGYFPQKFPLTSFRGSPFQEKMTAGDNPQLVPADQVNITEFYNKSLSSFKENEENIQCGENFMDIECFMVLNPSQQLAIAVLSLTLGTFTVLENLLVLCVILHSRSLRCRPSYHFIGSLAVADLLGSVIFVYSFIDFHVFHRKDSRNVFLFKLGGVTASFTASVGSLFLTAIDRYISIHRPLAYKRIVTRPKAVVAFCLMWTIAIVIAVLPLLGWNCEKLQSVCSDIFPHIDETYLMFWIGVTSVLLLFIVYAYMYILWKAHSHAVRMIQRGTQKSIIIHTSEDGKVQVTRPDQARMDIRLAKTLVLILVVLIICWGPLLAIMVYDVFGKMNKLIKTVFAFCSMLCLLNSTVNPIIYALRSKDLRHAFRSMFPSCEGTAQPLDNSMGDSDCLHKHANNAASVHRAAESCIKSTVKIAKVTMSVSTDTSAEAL

Row | Compound | Ke (nM) at CB1 (CB1 [1]) | Ki (CB2) [nM] | also measured
1 | CC(C)NC(=O)NC1(c2ccccc2)CCN(c2ncnc3c2nc(-c2ccccc2Cl)n3-c2ccc(Cl)cc2)CC1 | 46 nM | – | –
2 | CCNC(=O)N1CCCC(Nc2ncnc3c2nc(-c2ccccc2Cl)n3-c2ccc(Cl)cc2)C1 (stereo not shown) | 1153 nM | – | –
3 | NC1CCN(c2ncnc3c2nc(-c2ccccc2Cl)n3-c2ccc(Cl)cc2)CC1 | 316 nM | – | –
4 | CS(=O)(=O)N1CCC(Nc2ncnc3c2nc(-c2ccccc2Cl)n3-c2ccc(Cl)cc2)CC1 | 1645 nM | – | –
5 | CCCCNC(=O)NC1(c2ccccc2)CCN(c2ncnc3c2nc(-c2ccccc2Cl)n3-c2ccc(Cl)cc2)CC1 | 62 nM | – | –
6 | CC(C)(C)OC(=O)NC1CCN(c2ncnc3c2nc(-c2ccccc2Cl)n3-c2ccc(Cl)cc2)CC1 | 11 nM | – | –
7 | CCNC(=O)NC1CCN(c2ncnc3c2nc(-c2ccccc2Cl)n3-c2ccc(Cl)cc2)CC1 | 149 nM | – | –
8 | CCCCC(=O)NC1CCN(c2ncnc3c2nc(-c2ccccc2Cl)n3-c2ccc(Cl)cc2)CC1 [drawing 78] | 4.9 nM | 1050 | Binding Selectivity using CP55940 Displacement (CB1 [2]): 54; Ki (CB1 [2]): 19.5 nM
9 | CC(=O)NC1CCN(c2ncnc3c2nc(-c2ccccc2Cl)n3-c2ccc(Cl)cc2)CC1 | 631 nM | – | –
10 | CCCNC(=O)N1CCC(Nc2ncnc3c2nc(-c2ccccc2Cl)n3-c2ccc(Cl)cc2)CC1 | 1964 nM | – | –
11 | CCNC(=O)N1CCC(Nc2ncnc3c2nc(-c2ccccc2Cl)n3-c2ccc(Cl)cc2)CC1 | 1148 nM | – | –
12 | CCOC(=O)NC1CCN(c2ncnc3c2nc(-c2ccccc2Cl)n3-c2ccc(Cl)cc2)CC1 [drawing 62] | 2.3 nM | 426 | Binding Selectivity using CP55940 Displacement (CB1 [2]): 119; Ki (CB1 [2]): 3.57 nM
13 | CC(C)NC(=O)N1CCC(Nc2ncnc3c2nc(-c2ccccc2Cl)n3-c2ccc(Cl)cc2)CC1 | 495 nM | – | –
14 | COC(=O)NC1CCN(c2ncnc3c2nc(-c2ccccc2Cl)n3-c2ccc(Cl)cc2)CC1 | 17 nM | – | –
15 | O=S(=O)(NC1CCN(c2ncnc3c2nc(-c2ccccc2Cl)n3-c2ccc(Cl)cc2)CC1)c1ccccc1 | 0.26 nM | – | –
16 | Clc1ccc(-n2c(-c3ccccc3Cl)nc3c(NC4CCNCC4)ncnc32)cc1 | Not active | – | –
17 | CCCNC(=O)NC1(c2ccccc2)CCN(c2ncnc3c2nc(-c2ccccc2Cl)n3-c2ccc(Cl)cc2)CC1 | 100 nM | – | –
18 | O=C(CCN1CCCCC1)NC1CCN(c2ncnc3c2nc(-c2ccccc2Cl)n3-c2ccc(Cl)cc2)CC1 | 789 nM | – | –
19 | NC1(c2ccccc2)CCN(c2ncnc3c2nc(-c2ccccc2Cl)n3-c2ccc(Cl)cc2)CC1 | 15.89 nM | 1660 | Binding Selectivity using CP55940 Displacement (CB1 [2]): 151; Ki (CB1 [2]): 11 nM; % MDCK-MDR transport (Apical to Basal) (MDCK-MDR): <1%
20 | O=C(CC1CCCCC1)NC1CCN(c2ncnc3c2nc(-c2ccccc2Cl)n3-c2ccc(Cl)cc2)CC1 | 2.1 nM | 2360 | Ki (CB1 [2]): 1.93 nM
21 | CCCCC(=O)NC1CCN(c2ncnc3c2nc(-c2ccccc2Cl)n3-c2ccc(Cl)cc2)CC1 [drawing 85] | – | – | Kp at 1 h ([3]; 1 hour post dose): 0.03; Kp at 2 h ([3]; 2 hours post dose): 0.03; Kp at 4 h ([3]; 4 hours post dose): 0.07; Kp at 24 h ([3]; 24 hours post dose): 0.13; Kp [3]: 0.03 to 0.13; Plasma conc. ([3]; 1 hour post dose): 1430 ng/mL; Plasma conc. ([3]; 2 hours post dose): 2780 ng/mL; Plasma conc. ([3]; 4 hours post dose): 1680 ng/mL; Plasma conc. ([3]; 24 hours post dose): 18.7 ng/mL; Brain conc. ([3]; 1 hour post dose): 43.6 ng/mL; Brain conc. ([3]; 2 hours post dose): 72.4 ng/mL; Brain conc. ([3]; 4 hours post dose): 119 ng/mL; Brain conc. ([3]; 24 hours post dose): 2.36 ng/mL
22 | CCOC(=O)NC1CCN(c2ncnc3c2nc(-c2ccccc2Cl)n3-c2ccc(Cl)cc2)CC1 [drawing 84] | – | – | Kp at 1 h ([3]; 1 hour post dose): 0.28; Kp at 2 h ([3]; 2 hours post dose): 0.14; Kp at 4 h ([3]; 4 hours post dose): 0.16; Kp at 24 h ([3]; 24 hours post dose): 0.46; Kp [3]: 0.14 to 0.46; Plasma conc. ([3]; 1 hour post dose): 740 ng/mL; Plasma conc. ([3]; 2 hours post dose): 971 ng/mL; Plasma conc. ([3]; 4 hours post dose): 1750 ng/mL; Plasma conc. ([3]; 24 hours post dose): 72.6 ng/mL; Brain conc. ([3]; 1 hour post dose): 207 ng/mL; Brain conc. ([3]; 2 hours post dose): 132 ng/mL; Brain conc. ([3]; 4 hours post dose): 276 ng/mL; Brain conc. ([3]; 24 hours post dose): 33.5 ng/mL

Row | Compound | Ke (nM) at CB1 (CB1 [1]) | Ki (CB2) [nM] | also measured
23 | CCNC(=O)NC1(c2ccccc2)CCN(c2ncnc3c2nc(-c2ccccc2Cl)n3-c2ccc(Cl)cc2)CC1 | 443 nM | 4640 | Binding Selectivity using CP55940 Displacement (CB1 [2]): 24; Ki (CB1 [2]): 195 nM
24 | CC(C)CC(=O)NC1CCN(c2ncnc3c2nc(-c2ccccc2Cl)n3-c2ccc(Cl)cc2)CC1 | 5.4 nM | 89.5 | Binding Selectivity using CP55940 Displacement (CB1 [2]): 22; Ki (CB1 [2]): 4.01 nM
25 | O=C(NC1CCN(c2ncnc3c2nc(-c2ccccc2Cl)n3-c2ccc(Cl)cc2)CC1)C(F)(F)F | 3.19 nM | – | –
26 | CCOC(=O)CNC(=O)NC1(c2ccccc2)CCN(c2ncnc3c2nc(-c2ccccc2Cl)n3-c2ccc(Cl)cc2)CC1 | 171 nM | – | –
27 | CS(=O)(=O)NC1CCN(c2ncnc3c2nc(-c2ccccc2Cl)n3-c2ccc(Cl)cc2)CC1 | 71 nM | – | –
28 | O=C(CC1CCCC1)NC1CCN(c2ncnc3c2nc(-c2ccccc2Cl)n3-c2ccc(Cl)cc2)CC1 | 2.9 nM | 569 | Binding Selectivity using CP55940 Displacement (CB1 [2]): 282; Ki (CB1 [2]): 2.02 nM
29 | O=C(NC1CCN(c2ncnc3c2nc(-c2ccccc2Cl)n3-c2ccc(Cl)cc2)CC1)C1CCCCC1 | 3.3 nM | 835 | Binding Selectivity using CP55940 Displacement (CB1 [2]): 249; Ki (CB1 [2]): 3.35 nM
30 | CC(=O)N1CCCC(Nc2ncnc3c2nc(-c2ccccc2Cl)n3-c2ccc(Cl)cc2)C1 (stereo not shown) | 4449 nM | – | –
31 | O=S(=O)(NC1CCN(c2ncnc3c2nc(-c2ccccc2Cl)n3-c2ccc(Cl)cc2)CC1)C(F)(F)F | 1.05 nM | 4500 | Binding Selectivity using CP55940 Displacement (CB1 [2]): 738; Ki (CB1 [2]): 6.1 nM
32 | CC(C)CCC(=O)NC1CCN(c2ncnc3c2nc(-c2ccccc2Cl)n3-c2ccc(Cl)cc2)CC1 | 7.4 nM | 215 | Binding Selectivity using CP55940 Displacement (CB1 [2]): 81; Ki (CB1 [2]): 2.67 nM
33 | O=C(NC1CCN(c2ncnc3c2nc(-c2ccccc2Cl)n3-c2ccc(Cl)cc2)CC1)c1ccccc1 | – | 10600 | –
34 | CN(C)CC(=O)NC1CCN(c2ncnc3c2nc(-c2ccccc2Cl)n3-c2ccc(Cl)cc2)CC1 | 140 nM | – | –
35 | CCCCNC(=O)NC1CCN(c2ncnc3c2nc(-c2ccccc2Cl)n3-c2ccc(Cl)cc2)CC1 | 49 nM | – | –
36 | CCCNC(=O)NC1CCN(c2ncnc3c2nc(-c2ccccc2Cl)n3-c2ccc(Cl)cc2)CC1 | 132 nM | – | –
37 | CCCCNC(=O)N1CCC(Nc2ncnc3c2nc(-c2ccccc2Cl)n3-c2ccc(Cl)cc2)CC1 | 71 nM | – | –
38 | CC(=O)N1CCC(Nc2ncnc3c2nc(-c2ccccc2Cl)n3-c2ccc(Cl)cc2)CC1 | 19595 nM | – | –
39 | O=C(NC1CCN(c2ncnc3c2nc(-c2ccccc2Cl)n3-c2ccc(Cl)cc2)CC1)C1CCCC1 | 0.89 nM | 60.2 | Binding Selectivity using CP55940 Displacement (CB1 [2]): 39; Ki (CB1 [2]): 1.54 nM
40 | CC(C)(C)OC(=O)N1CCC(Nc2ncnc3c2nc(-c2ccccc2Cl)n3-c2ccc(Cl)cc2)CC1 | 92 nM | 13600 | Binding Selectivity using CP55940 Displacement (CB1 [2]): 568.8; Ki (CB1 [2]): 23.9 nM
41 | NS(=O)(=O)NC1CCN(c2ncnc3c2nc(-c2ccccc2Cl)n3-c2ccc(Cl)cc2)CC1 | 2768 nM | – | –
42 | CC(C)NC(=O)NC1CCN(c2ncnc3c2nc(-c2ccccc2Cl)n3-c2ccc(Cl)cc2)CC1 | 133 nM | – | –
43 | O=C(NC1CCCCC1)NC1(c2ccccc2)CCN(c2ncnc3c2nc(-c2ccccc2Cl)n3-c2ccc(Cl)cc2)CC1 | 199 nM | – | –
